Laboratory results published in paper PMC12948427 (The Journal of Clinical Investigation, 2025).
“And” between values parts separate entries of the source, which are not always exact repeats. Equal values may be shown once. Read-outs that look alike come from different tables or passages of the source.

How the values were obtained:
WIV1 [1] = assay type: cell-based, bat coronavirus WIV1
HCoV-OC43 VLP = assay type: cell-based
MHV [2] = experiment: microbe, parasite or virus in culture; details: Murine coronavirus, 24 h, read-out: EC50, rescue of coronavirus-induced cytopathic effects
HCoV-OC43 = experiment: Infection of ALI-cultured primary HBEs, HCoV-OC43; assay type: cell-based
Experimental: Primary HBEs at passage 3 or earlier were seeded at a density of 40,000 cells per well in Transwell inserts (Costar 6.5 mm Transwell, 0.4 μm Pore Polyester Membrane Inserts, catalog 3470) for expansion culture. The cells were cultured in expansion medium (PneumaCult-Ex Plus Medium, catalog 05040) until tight junctions were formed. Once tight junctions were established, the expansion medium in the upper chamber was discarded, and the medium in the lower chamber was replaced with ALI differentiation medium (PneumaCult-ALI Medium, catalog 05001). Cells were maintained under ALI conditions, with the medium being changed every 2 days. The differentiation process was carried out for 21 days, during which cell morphology and differentiation status were monitored. The fully differentiated cells were infected with HCoV-OC43, HCoV-229E, HCoV-NL63, or SARS-CoV-2 (MOI = 1), and fresh medium was changed 1 hour postinfection. Specific peptide was added into the medium every 24 hours. At 96 hours postinfection, cells in Transwell inserts were washed with 140 μL PBS per insert, and the wash fluid was collected to extract virus RNA followed by RT-qPCR. […] The fluorescence was measured using ImageJ (NIH).

MHV [3] = experiment: TEM of MHV-infected 17Cl-1 cells (virions, DMVs); assay type: cell-based, mouse hepatitis virus (MHV)
Experimental: WT or Hgs-KO 17Cl-1 cells were grown on ACLAR films and infected with MHV. At 24 hpi the cells were rinsed with PBS and then fixed with 2.5% glutaraldehyde in PBS overnight. The fixed cells were rinsed with 0.1 M PB 2 times and then double-distilled water 2 times, each time for 6 minutes. They were submerged in an aqueous solution containing 1% osmium tetraoxide and 1.5% potassium ferricyanide for 1.5 hours and then rinsed with double-distilled water 3 times, each time for 6 minutes. The samples underwent a dehydration process in which the solution submerging the samples was sequentially replaced by 30%, 50%, 70%, 80%, 90%, 100%, 100%, and 100% ethanol solutions, with each solution submerging the sample for 6 minutes. The samples were then infiltrated sequentially with 100% acetone for 6 minutes 2 times, 3:1 acetone/EMbed 812 resin for 1 hour, 1:1 acetone/EMbed 812 resin for 2 hours, 1:3 acetone/EMbed 812 resin for 3 hours, and 100% EMbed 812 resin for 12 hours 2 times. The samples were embedded in EMbed 812 resin and underwent solidification at 45°C for 12 hours and then 60°C for 48 hours. Sectioning was performed with a Leica EM UC6 ultramicrotome. The sections were stained with 2% uranyl acetate for 15 minutes and 1% lead citrate for 5 minutes. Electron micrographs were acquired with an FEI Tecnai Spirit 120 kV transmission electron microscope operating at 100 kV accelerating voltage.

MHV [4] = assay type: cell-based, mouse hepatitis virus (MHV)
WIV1 [5] = experiment: microbe, parasite or virus in culture; assay type: cell-based, bat coronavirus WIV1; details: Bat coronavirus, 48 h, read-out: EC50 (IFA)
HCoV-HKU1 VLP = assay type: cell-based
hHgs 1-390 protein = hHgs 1-390 protein (Homo sapiens, UniProt O14964); experiment: biochemical
hHgs 1-390 protein, sequence (O14964 1-390): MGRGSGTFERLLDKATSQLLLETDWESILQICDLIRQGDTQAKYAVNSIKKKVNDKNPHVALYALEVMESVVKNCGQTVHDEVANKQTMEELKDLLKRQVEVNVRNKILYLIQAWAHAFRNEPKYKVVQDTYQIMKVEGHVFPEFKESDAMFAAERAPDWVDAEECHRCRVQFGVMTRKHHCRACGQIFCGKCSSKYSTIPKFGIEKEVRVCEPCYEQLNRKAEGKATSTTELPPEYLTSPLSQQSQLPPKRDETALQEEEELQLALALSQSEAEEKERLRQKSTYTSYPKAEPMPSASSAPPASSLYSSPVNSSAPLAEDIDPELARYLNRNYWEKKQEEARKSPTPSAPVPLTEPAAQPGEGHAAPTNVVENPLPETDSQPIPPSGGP

[6] = TEM, RTB-treated versus DMSO, sheet does not name what is scored

CCCC(=O)OC[C@@H](OC(=O)CCC)[C@@H](OC(=O)CCC)[C@H](Cn1c2nc(=O)[nH]c(=O)c-2nc2cc(C)c(C)cc21)OC(=O)CCC [RTB, riboflavin tetrabutyrate]
cell viability, Figure S9M (Vero E6 cells; concentration 100): 90.9619 and 91.4921 and 91.5678
cell viability, Figure S9M (Vero E6 cells; concentration 200): 83.3123 and 82.1005 and 89.9015
cell viability, Figure S9M (Vero E6 cells; concentration 500): 91.4921 and 86.1146 and 87.6294
cell viability, Figure S9M (Vero E6 cells; concentration 1000): 92.9311 and 88.614 and 83.4638
cell viability, Figure S9M (Vero E6 cells; concentration 2000): 97.5511 and 94.5216 and 90.4317
cell viability, Figure S9M (Vero E6 cells; concentration 5000): 93.6885 and 92.1737 and 93.0068
cell viability, Figure S9M (Vero E6 cells; concentration 10000): 96.718 and 96.0363 and 91.6435
cell viability, Figure S9M (Vero E6 cells; concentration 20000): 91.6435 and 99.3688 and 98.3085
inhibition of infection in ALI cultures of HBEs (WIV1 [1]): significant, dose-dependent inhibition
VLPs' release (HCoV-OC43 VLP): concentration-dependent inhibition
cell viability, Figure S9C (17Cl-1 cells; concentration 100): 97.7719 and 100.641 and 97.299
cell viability, Figure S9C (17Cl-1 cells; concentration 200): 98.9701 and 100.61 and 98.3395
cell viability, Figure S9C (17Cl-1 cells; concentration 500): 100.294 and 99.5691 and 98.0557
cell viability, Figure S9C (17Cl-1 cells; concentration 1000): 100.137 and 99.6952 and 100.704
cell viability, Figure S9C (17Cl-1 cells; concentration 2000): 101.366 and 100.294 and 100.61
cell viability, Figure S9C (17Cl-1 cells; concentration 5000): 101.555 and 101.524 and 100.673
cell viability, Figure S9C (17Cl-1 cells; concentration 10000): 99.979 and 101.24 and 100.294
cell viability, Figure S9C (17Cl-1 cells; concentration 20000): 99.506 and 99.1907 and 98.4025
EC50 (MHV [2]): 3.48 µM
extracellular viral gRNA levels (RT-qPCR) (HCoV-OC43; Fig 5I, HCoV-OC43 MOI = 1, ALI-cultured HBEs, 96 h, RTB dose 5 (unit not given)): 24 and 18 and 15
inhibition of infection in ALI cultures of HBEs (HCoV-OC43; HCoV-OC43): significant, dose-dependent inhibition
cell viability, Figure S9N (Calu-3 cells; concentration 100): 105.852 and 107.383 and 107.23
cell viability, Figure S9N (Calu-3 cells; concentration 200): 101.565 and 101.412 and 100.391
cell viability, Figure S9N (Calu-3 cells; concentration 500): 101.157 and 97.3801 and 98.3498
cell viability, Figure S9N (Calu-3 cells; concentration 1000): 97.9415 and 98.4518 and 97.0228
cell viability, Figure S9N (Calu-3 cells; concentration 2000): 101.616 and 101.361 and 95.2365
cell viability, Figure S9N (Calu-3 cells; concentration 5000): 102.331 and 100.647 and 99.932
cell viability, Figure S9N (Calu-3 cells; concentration 10000): 101.31 and 101.055 and 99.5747
cell viability, Figure S9N (Calu-3 cells; concentration 20000): 107.281 and 106.312 and 107.792
DMVs, the replication organelles (TEM) (MHV [3]; 25 μM, MHV-infected 17Cl-1, hpi = 24 h): not significantly changed
intracellular mature virions (TEM) (MHV [3]; 25 μM, MHV-infected 17Cl-1, hpi = 24 h, compared with DMSO): significantly decreased
Negative (count, Figure 7G) (MHV [3]; RTB-treated, DMSO: 19): 2
Positive (count, Figure 7G) (MHV [3]; RTB-treated, DMSO: 41): 58
Negative (number of cells counted, Figure 7H) (MHV [3]; [6]): 37
Positive (number of cells counted, Figure 7H) (MHV [3]; [6]): 23
Extracellular MHV gRNA (Figure S11A) (MHV [4]; Ctr 17Cl-1 cells, 24 hpi): 2.752 and 2.754 and 2.756
Extracellular MHV gRNA (Figure S11A) (MHV [4]; Ctr 17Cl-1 cells, 48 hpi): 3.4199 and 3.426 and 3.424
Extracellular MHV gRNA (Figure S11A) (MHV [4]; Ctr 17Cl-1 cells, 72 hpi): 4.001 and 4.062 and 3.972
Extracellular MHV gRNA (Figure S11A) (MHV [4]; Hgs-KO1 17Cl-1 cells, 24 hpi): 1.499 and 1.531 and 1.548
Extracellular MHV gRNA (Figure S11A) (MHV [4]; Hgs-KO1 17Cl-1 cells, 48 hpi): 1.985 and 1.987 and 1.914
Extracellular MHV gRNA (Figure S11A) (MHV [4]; Hgs-KO1 17Cl-1 cells, 72 hpi): 3.343 and 3.307 and 3.373
Extracellular MHV gRNA (Figure S11A) (MHV [4]; Hgs-KO2 17Cl-1 cells, 24 hpi): 1.087 and 1.162 and 1.202
Extracellular MHV gRNA (Figure S11A) (MHV [4]; Hgs-KO2 17Cl-1 cells, 48 hpi): 1.5876 and 1.652 and 1.594
Extracellular MHV gRNA (Figure S11A) (MHV [4]; Hgs-KO2 17Cl-1 cells, 72 hpi): 2.484 and 2.493 and 2.452
antiviral activity in Hgs-KO cells (MHV [4]; MHV, Hgs-KO 17Cl-1, RTB 25 μM or RDV 5 μM, compared with DMSO-treated Hgs-KO cells): failed to inhibit viral infection
EC50 (WIV1 [5]): 3.53 µM
VLPs' release (HCoV-HKU1 VLP): concentration-dependent inhibition
IC50 (hHgs 1-390 protein): 0.58 µM
